In brackets after ≈: the same amount, converted by molar mass. Read-outs that look alike come from different tables or passages of the source.
What was measured:
Cryptococcus neoformans [1] = test: agar dilution assay (MIC) against expanded panel of 84 Cryptococcus neoformans isolates; format: cell-based; conditions: for MIC50: read-out: MIC50 (concentration at which 50% of the strains were inhibited); for MIC90: read-out: MIC90 (concentration at which 90% of the strains were inhibited)
Description: (§1) Such activity may be illustrated with test results against Cryptococcus neoformans employing yeast nitrogen base dextrose agar medium. In carrying out the assay, Compound I was solubilized in 10 percent dimethyl sulfoxide (DMSO) supplemented with one drop of Tween 20. Twofold dilutions were made with sterile distilled water/10 percent DMSO to obtain final drug concentrations in the agar dilution assay plates ranging from 128 to 0.06 μg/ml against two strains of Cryptococcus neoformans and subsequently against an expanded panel of 84 Cryptococcus strains at concentrations ranging from 0.008 to 16.0 μg/ml.
(§2) Nystatin or amphotericin B was used as a positive control. For the assay, nystatin was solubilized in 10 percent dimethylformamide and diluted in sterile distilled water; amphotericin B was solubilized by expressing water directly into a lyophilized cake and shaking until the colloidal solution was clear and then diluted in sterile distilled water. The final drug concentrations ranged from 0.063 to 128 μg/ml.

Ustilago zea = test: disk diffusion assay, Ustilago zea; format: cell-based; design: key: fuzzy (F)--a zone that had a fuzzy edge and clear center surrounding the disc; hazy (H)--a zone that was hazy throughout; slightly hazy (S)--a zone in which low levels of growth were discernible throughout the inhibition zone; very hazy (V)--a zone in which the differences between the background lawn and inhibition zone were barely discernible; conditions: appearance of inhibition zone
Description: (§3) The broad antifungal activity of Compound I against fungi may be illustrated with representative assay results in a disk diffusion assay. Filamentous fungi used in the assays were prepared from stock cultures which had been maintained on potato dextrose agar (Difco) and transferred serially at two week intervals using standard microbiological techniques. Yeast used were prepared from stock cultures of strains of yeast which had been maintained frozen at -80° C. in 20 percent aqueous glycerol.
(§4) Seeded agar assay plates were prepared according to the type of assay strain. Inoculum for filamentous fungi was prepared by scraping the surface of stock plates with a moistened sterile dacron swab. The spores and mycelia were then suspended in 10 milliliters of sterile potato dextrose broth (PDB) and adjusted to 70% transmittance (T) at 660 nm. Inoculum for Cryptococcus was prepared from overnight broth cultures. Cultures were then diluted into PDB to a final concentration of either 40% or 70% T at 660 nm. Assay plates were prepared by diluting the inoculum into appropriate molten agar medium, and thereafter cooled to 45° C., to yield a final concentration of 4 percent.
(§5) Samples were applied to 6.2 mm filter paper disks (25 μl disk) and air dried at 24° C. […]
(§6) Following incubation, inhibition zones were measured and recorded. […]

Aspergillus flavus = test: disk diffusion assay, Aspergillus flavus; format: cell-based; design: key: fuzzy (F)--a zone that had a fuzzy edge and clear center surrounding the disc; hazy (H)--a zone that was hazy throughout; slightly hazy (S)--a zone in which low levels of growth were discernible throughout the inhibition zone; very hazy (V)--a zone in which the differences between the background lawn and inhibition zone were barely discernible; conditions: appearance of inhibition zone
Description: as §3, §4, §5, §6

Trichoderma lignorum = test: disk diffusion assay, Trichoderma lignorum; format: cell-based; design: key: fuzzy (F)--a zone that had a fuzzy edge and clear center surrounding the disc; hazy (H)--a zone that was hazy throughout; slightly hazy (S)--a zone in which low levels of growth were discernible throughout the inhibition zone; very hazy (V)--a zone in which the differences between the background lawn and inhibition zone were barely discernible; conditions: appearance of inhibition zone
Description: as §3, §4, §5, §6

Botrytis allii = test: disk diffusion assay, Botrytis allii; format: cell-based; design: key: fuzzy (F)--a zone that had a fuzzy edge and clear center surrounding the disc; hazy (H)--a zone that was hazy throughout; slightly hazy (S)--a zone in which low levels of growth were discernible throughout the inhibition zone; very hazy (V)--a zone in which the differences between the background lawn and inhibition zone were barely discernible; conditions: appearance of inhibition zone
Description: as §3, §4, §5, §6

Scopulariopsis communes = test: disk diffusion assay, Scopulariopsis communes; format: cell-based; design: key: fuzzy (F)--a zone that had a fuzzy edge and clear center surrounding the disc; hazy (H)--a zone that was hazy throughout; slightly hazy (S)--a zone in which low levels of growth were discernible throughout the inhibition zone; very hazy (V)--a zone in which the differences between the background lawn and inhibition zone were barely discernible; conditions: appearance of inhibition zone
Description: as §3, §4, §5, §6

solubility = conditions: organic solvents
Verticillium serrae = test: disk diffusion assay, Verticillium serrae; format: cell-based; design: key: fuzzy (F)--a zone that had a fuzzy edge and clear center surrounding the disc; hazy (H)--a zone that was hazy throughout; slightly hazy (S)--a zone in which low levels of growth were discernible throughout the inhibition zone; very hazy (V)--a zone in which the differences between the background lawn and inhibition zone were barely discernible; conditions: appearance of inhibition zone
Description: as §3, §4, §5, §6

Cryptococcus albidus = test: disk diffusion assay, Cryptococcus albidus; format: cell-based; design: key: fuzzy (F)--a zone that had a fuzzy edge and clear center surrounding the disc; hazy (H)--a zone that was hazy throughout; slightly hazy (S)--a zone in which low levels of growth were discernible throughout the inhibition zone; very hazy (V)--a zone in which the differences between the background lawn and inhibition zone were barely discernible; conditions: appearance of inhibition zone
Description: as §3, §4, §5, §6

Trichoderma sp. = test: disk diffusion assay, Trichoderma sp.; format: cell-based; design: key: fuzzy (F)--a zone that had a fuzzy edge and clear center surrounding the disc; hazy (H)--a zone that was hazy throughout; slightly hazy (S)--a zone in which low levels of growth were discernible throughout the inhibition zone; very hazy (V)--a zone in which the differences between the background lawn and inhibition zone were barely discernible; conditions: appearance of inhibition zone
Description: as §3, §4, §5, §6

Fusarium oxysporum = test: disk diffusion assay, Fusarium oxysporum; format: cell-based; design: key: fuzzy (F)--a zone that had a fuzzy edge and clear center surrounding the disc; hazy (H)--a zone that was hazy throughout; slightly hazy (S)--a zone in which low levels of growth were discernible throughout the inhibition zone; very hazy (V)--a zone in which the differences between the background lawn and inhibition zone were barely discernible; conditions: appearance of inhibition zone
Description: as §3, §4, §5, §6

Cercospora beticola = test: disk diffusion assay, Cercospora beticola; format: cell-based; design: key: fuzzy (F)--a zone that had a fuzzy edge and clear center surrounding the disc; hazy (H)--a zone that was hazy throughout; slightly hazy (S)--a zone in which low levels of growth were discernible throughout the inhibition zone; very hazy (V)--a zone in which the differences between the background lawn and inhibition zone were barely discernible; conditions: appearance of inhibition zone
Description: as §3, §4, §5, §6

Cryptococcus laurentii = test: disk diffusion assay, Cryptococcus laurentii; format: cell-based; design: key: fuzzy (F)--a zone that had a fuzzy edge and clear center surrounding the disc; hazy (H)--a zone that was hazy throughout; slightly hazy (S)--a zone in which low levels of growth were discernible throughout the inhibition zone; very hazy (V)--a zone in which the differences between the background lawn and inhibition zone were barely discernible; conditions: appearance of inhibition zone
Description: as §3, §4, §5, §6

Phoma sp. = test: disk diffusion assay, Phoma sp.; format: cell-based; design: key: fuzzy (F)--a zone that had a fuzzy edge and clear center surrounding the disc; hazy (H)--a zone that was hazy throughout; slightly hazy (S)--a zone in which low levels of growth were discernible throughout the inhibition zone; very hazy (V)--a zone in which the differences between the background lawn and inhibition zone were barely discernible; conditions: appearance of inhibition zone
Description: as §3, §4, §5, §6

Alternaria solani = test: disk diffusion assay, Alternaria solani; format: cell-based; design: key: fuzzy (F)--a zone that had a fuzzy edge and clear center surrounding the disc; hazy (H)--a zone that was hazy throughout; slightly hazy (S)--a zone in which low levels of growth were discernible throughout the inhibition zone; very hazy (V)--a zone in which the differences between the background lawn and inhibition zone were barely discernible; conditions: appearance of inhibition zone
Description: as §3, §4, §5, §6

Cryptococcus neoformans [2] = test: agar dilution assay (MIC) against two strains of Cryptococcus neoformans; format: cell-based; conditions: yeast nitrogen base dextrose agar
Description: as §1, §2
The minimum inhibitory concentration (MIC) against the organisms employed on the standard assay were as follows: […]

Aspergillus niger = test: disk diffusion assay, Aspergillus niger; format: cell-based; design: key: fuzzy (F)--a zone that had a fuzzy edge and clear center surrounding the disc; hazy (H)--a zone that was hazy throughout; slightly hazy (S)--a zone in which low levels of growth were discernible throughout the inhibition zone; very hazy (V)--a zone in which the differences between the background lawn and inhibition zone were barely discernible; conditions: appearance of inhibition zone
Description: as §3, §4, §5, §6

Cephalosporium sp. = test: disk diffusion assay, Cephalosporium sp.; format: cell-based; design: key: fuzzy (F)--a zone that had a fuzzy edge and clear center surrounding the disc; hazy (H)--a zone that was hazy throughout; slightly hazy (S)--a zone in which low levels of growth were discernible throughout the inhibition zone; very hazy (V)--a zone in which the differences between the background lawn and inhibition zone were barely discernible; conditions: appearance of inhibition zone
Description: as §3, §4, §5, §6

Erwinia species = test: activity against bacteria (statement), Erwinia; format: cell-based
[3] = system: certain yeasts, particularly the Cryptococcus species; test: activity against certain yeasts (statement); format: cell-based
Serratia species = test: activity against bacteria (statement), Serratia; format: cell-based
Staphylococcus species = test: activity against bacteria (statement), Staphylococcus; format: cell-based
Cochliobolus miyabeanus = test: disk diffusion assay, Cochliobolus miyabeanus; format: cell-based; design: key: fuzzy (F)--a zone that had a fuzzy edge and clear center surrounding the disc; hazy (H)--a zone that was hazy throughout; slightly hazy (S)--a zone in which low levels of growth were discernible throughout the inhibition zone; very hazy (V)--a zone in which the differences between the background lawn and inhibition zone were barely discernible; conditions: appearance of inhibition zone
Description: as §3, §4, §5, §6

Aspergillus fumigatus = test: disk diffusion assay, Aspergillus fumigatus; format: cell-based; design: key: fuzzy (F)--a zone that had a fuzzy edge and clear center surrounding the disc; hazy (H)--a zone that was hazy throughout; slightly hazy (S)--a zone in which low levels of growth were discernible throughout the inhibition zone; very hazy (V)--a zone in which the differences between the background lawn and inhibition zone were barely discernible; conditions: appearance of inhibition zone
Description: as §3, §4, §5, §6

Penicillium sp. = test: disk diffusion assay, Penicillium sp.; format: cell-based; design: key: fuzzy (F)--a zone that had a fuzzy edge and clear center surrounding the disc; hazy (H)--a zone that was hazy throughout; slightly hazy (S)--a zone in which low levels of growth were discernible throughout the inhibition zone; very hazy (V)--a zone in which the differences between the background lawn and inhibition zone were barely discernible; conditions: appearance of inhibition zone
Description: as §3, §4, §5, §6

Ceratocystis ulmi = test: disk diffusion assay, Ceratocystis ulmi; format: cell-based; design: key: fuzzy (F)--a zone that had a fuzzy edge and clear center surrounding the disc; hazy (H)--a zone that was hazy throughout; slightly hazy (S)--a zone in which low levels of growth were discernible throughout the inhibition zone; very hazy (V)--a zone in which the differences between the background lawn and inhibition zone were barely discernible; conditions: appearance of inhibition zone
Description: as §3, §4, §5, §6

Rhizomucor miehei = test: disk diffusion assay, Rhizomucor miehei; format: cell-based; design: key: fuzzy (F)--a zone that had a fuzzy edge and clear center surrounding the disc; hazy (H)--a zone that was hazy throughout; slightly hazy (S)--a zone in which low levels of growth were discernible throughout the inhibition zone; very hazy (V)--a zone in which the differences between the background lawn and inhibition zone were barely discernible; conditions: appearance of inhibition zone
Description: as §3, §4, §5, §6

C[C@@H]1[C@H](O)[C@@H](C)/C=C/C=C/C=C/C=C/C=C/C=C/C=C/[C@H](O[C@@H]2O[C@H](C)[C@@H](O)[C@H](N)[C@@H]2O)C[C@@H]2O[C@](O)(C[C@@H](O)C[C@@H](O)[C@H](O)CC[C@@H](O)C[C@@H](O)CC(=O)O[C@H]1C)C[C@H](O)[C@H]2C(=O)O [Amphotericin B, amphotericin B, reference compound]
MIC50 (Cryptococcus neoformans [1]; 84 isolates): 0.125 µg/mL (≈ 0.135 µM)
MIC90 (Cryptococcus neoformans [1]; 84 isolates): 0.25 µg/mL (≈ 0.271 µM)

COc1ccc(CC2NC(=O)C=CCC(C(C)C3OC3c3ccccc3)OC(=O)C(CC(C)C)OC(=O)C(C)CNC2=O)cc1Cl (stereo not shown) [Compound I, 10-[(3-chloro 4methoxyphenyl)methyl]-6-methyl-3-(2-methylpropyl)-16-[1-(3-phenyloxiranyl)ethyl]-1,4-dioxa-8,11-diazacyclohexadec-13-ene-2,5,9,12-tetrone]
Zone qualifier (Ustilago zea): S
Zone qualifier (Aspergillus flavus): S
Zone qualifier (Trichoderma lignorum): S
Zone qualifier (Botrytis allii): S
Zone qualifier (Scopulariopsis communes): H
solubility (solubility): soluble in organic solvents
Zone qualifier (Verticillium serrae): V
Zone qualifier (Cryptococcus albidus): S
Zone qualifier (Trichoderma sp.): S
Zone qualifier (Fusarium oxysporum): F
Zone qualifier (Cercospora beticola): S
Zone qualifier (Cryptococcus laurentii): H and S
MIC (Cryptococcus neoformans [1]; read-out: G-MIC (geometric means of MIC)): 0.03 µg/mL (≈ 0.0458 µM)
MIC50 (Cryptococcus neoformans [1]): 0.031 µg/mL (≈ 0.0473 µM)
MIC90 (Cryptococcus neoformans [1]): 0.031 µg/mL (≈ 0.0473 µM)
Zone qualifier (Phoma sp.): S
Zone qualifier (Alternaria solani): S
MIC (Cryptococcus neoformans [2]; strain MY1051, read-out: Minimum Inhibitory Concentration): ≤ 0.063 µg/mL
Minimum Inhibitory Concentration (Cryptococcus neoformans [2]; strain MY1146): ≤ 0.063 µg/mL
Zone qualifier (Aspergillus niger): S
Zone qualifier (Cephalosporium sp.): V
activity against bacteria (Erwinia species): active
activity against certain yeasts [3]: active
activity against bacteria (Serratia species): active
activity against bacteria (Staphylococcus species): active
Zone qualifier (Cochliobolus miyabeanus): F
Zone qualifier (Aspergillus fumigatus): S
Zone qualifier (Penicillium sp.): S and F
Zone qualifier (Ceratocystis ulmi): S
Zone qualifier (Rhizomucor miehei): V

C[C@@H]1[C@H](O)[C@@H](C)/C=C/C=C/CC/C=C/C=C/C=C/C=C/C(O[C@H]2O[C@H](C)[C@@H](O)[C@H](N)[C@@H]2O)CC2O[C@](O)(CC(O)C(O)CCC(O)CC(O)CC(O)CC(=O)O[C@H]1C)CC(O)C2C(=O)O (stereo partly shown) [Nystatin, nystatin, reference compound]
Minimum Inhibitory Concentration (Cryptococcus neoformans [2]; strain MY1051): 1.0 µg/mL
Minimum Inhibitory Concentration (Cryptococcus neoformans [2]; strain MY1146): 1.0 µg/mL
